The source of these data is ChEMBL document CHEMBL5136995, “Structure-based optimization of hydroxylactam as potent, cell-active inhibitors of lactate dehydrogenase” (Bioorg Med Chem Lett, 2022).

Series [1] is described as follows: Lipophilicity, logD of compound. It is filed as physicochemical. The following applies: octanol/water.
Series [2] deals with L-lactate dehydrogenase A chain (Homo sapiens, UniProt P00338). The series is described as follows: Inhibition of LDHA (unknown origin).
Series [3] concerns the target L-lactate dehydrogenase B chain (Homo sapiens, UniProt P07195). Briefly: Inhibition of LDHB (unknown origin).
Series [4] in a line: Inhibition of lactate production in human MIA PaCa-2 cells. It is filed as functional, cell-based.
Series [5] is described as follows: Apparent permeability across apical to basolateral side in MDCK cells at 100 uM by HPLC analysis. Format: ADME, cell-based, Canis lupus familiaris. The conditions noted are these: dog.
Series [6] is described as follows: Plasma protein binding in mouse. It is filed as ADME, cell-free. The following applies: read-out: PPB.

Sequence of L-lactate dehydrogenase B chain (P07195 whole entry): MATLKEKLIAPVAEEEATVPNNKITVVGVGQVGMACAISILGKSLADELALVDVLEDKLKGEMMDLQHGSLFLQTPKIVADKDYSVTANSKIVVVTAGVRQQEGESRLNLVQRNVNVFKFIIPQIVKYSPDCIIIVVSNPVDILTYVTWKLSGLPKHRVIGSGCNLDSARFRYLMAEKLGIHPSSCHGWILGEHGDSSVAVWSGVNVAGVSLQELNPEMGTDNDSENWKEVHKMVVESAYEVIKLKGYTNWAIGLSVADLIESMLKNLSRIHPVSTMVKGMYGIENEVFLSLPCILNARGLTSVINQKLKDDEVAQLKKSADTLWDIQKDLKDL

Consider `O=C1NC(c2cccc(NCc3ccc(F)cc3)n2)(c2cccc(Nc3ccc(F)c(F)c3)n2)CC(O)=C1Sc1ccccc1Cl` (stereo in doubt; 42), for which the logD in series [1] was determined as 2.5. In series [2], this molecule returned an IC50 of 8.6 nM.

`O=C1NC(c2ccc(N3CCOCC3)cc2)(c2cccc(Nc3ccc(F)cc3)n2)CC(O)=C1Sc1ccccc1Cl` (stereo in doubt; 49) had a half-inhibitory concentration (IC50) in series [2] of 11 nM.

`O=C1NC(c2cccc(NCCC3CC3)n2)(c2cccc(Nc3ccc(F)c(F)c3)n2)CC(O)=C1Sc1ccccc1Cl` (stereo in doubt; 41) yielded an IC50 in series [2] of 190 nM.

Take `O=C1OC(c2ccsc2)(c2ccccn2)CC(O)=C1Sc1ccccc1Cl` (stereo in doubt; 11): the IC50 in series [2] is 130 nM; in series [3], 540 nM.

Molecule `Nc1cccc(C2(c3ccsc3)CC(O)=C(Sc3ccccc3Cl)C(=O)O2)c1` (stereo in doubt; 20) gave a 50% inhibitory concentration (IC50) in series [2] of 13 nM.

`O=C1OC(c2ccsc2)(c2cccc(Nc3ccc(F)cc3)n2)CC(O)=C1Sc1ccccc1Cl` (stereo in doubt; 30) had an IC50 in series [2] of 2.9 nM.

In turn, `O=C1OC(c2ccsc2)(c2cccc(Nc3ccc(F)cn3)c2)CC(O)=C1Sc1ccccc1Cl` (stereo in doubt; 28) showed an IC50 in series [2] of 2.9 nM.

In series [1], `O=C1NC(c2cccc(Nc3ccc(F)c(F)c3)n2)(c2cccc(NC3CCCCC3)n2)CC(O)=C1Sc1ccccc1Cl` (stereo in doubt; 34) returned a logD of 2.6. For the same molecule, the IC50 in series [4] is 2200 nM; in series [2] it was 0.9 nM.

For `Nc1cccc(C2(c3ccccc3)CC(O)=C(Sc3ccccc3Cl)C(=O)O2)c1` (stereo in doubt; 23), the IC50 in series [2] is 450 nM; in series [3], 3800 nM.

`O=C1OC(c2ccsc2)(c2cccc(Nc3ccc(F)cn3)c2)CC(O)=C1Sc1ccccc1Cl` (stereo in doubt; 29): the half-inhibitory concentration (IC50) in series [2] was determined as 63 nM.

In series [2], `O=C1OC(c2ccsc2)(c2ccccc2F)CC(O)=C1Sc1ccccc1Cl` (stereo in doubt; 19) showed an IC50 of 450 nM.

For the molecule `O=C1OC(c2ccsc2)(c2ccccc2F)CC(O)=C1Sc1ccccc1Cl` (stereo in doubt; 18), the half-inhibitory concentration (IC50) in series [2] worked out at 220 nM.

Molecule `O=C1NC(c2cccc(Nc3ccc(F)c(F)c3)n2)(c2cccc(NC3CCCCC3)n2)CC(O)=C1Sc1ccccc1Cl` (stereo in doubt; 35) displayed a half-maximal inhibitory concentration (IC50) in series [2] of 4.4 nM.

As for `O=C1OC(c2ccccc2)(c2cscn2)CC(O)=C1Sc1ccccc1Cl` (stereo in doubt; 9), the 50% inhibitory concentration (IC50) in series [2] stood at 180 nM; in series [3] it was 550 nM.

In turn, `O=C1NC(c2ccsc2)(c2cccc(Nc3ccc(F)c(F)c3)n2)CC(O)=C1Sc1ccccc1Cl` (stereo in doubt; 39) registered an IC50 in series [2] of 75 nM.

Molecule `O=C1NC(c2cccc(NCc3ccc(F)cc3)n2)(c2cccc(Nc3ccc(F)c(F)c3)n2)CC(O)=C1Sc1ccccc1Cl` (stereo in doubt; 43) displayed an IC50 in series [2] of 160 nM.

On to `Nc1cccc(C2(c3ccccc3)CC(O)=C(Sc3ccccc3Cl)C(=O)O2)c1` (stereo in doubt; 22), for which the half-maximal inhibitory concentration (IC50) is 130 nM in series [2] and 250 nM in series [3].

In series [2], `O=C1O[C@](c2ccsc2)(c2cccc(Nc3ccc(F)cc3)c2)CC(O)=C1Sc1ccccc1Cl` gave an IC50 of 36 nM.

On to `O=C1NC(c2ccc(N3CCOCC3)cc2)(c2cccc(Nc3ccc(F)cc3)n2)CC(O)=C1Sc1ccccc1Cl` (stereo in doubt; 48), for which the log distribution coefficient (logD) in series [1] worked out at 2. In series [2], this molecule showed an IC50 of 2.5 nM.

As to `O=C1NC(c2cccc(Nc3ccc(F)c(F)c3)n2)(c2cccc(Oc3cccc4ncccc34)n2)CC(O)=C1Sc1ccccc1Cl` (stereo in doubt; 46), the logD in series [1] came out at 2.2. The results for the IC50 in series [4], in series [2] and in series [3] were 3600 nM, 3.8 nM and 25 nM, respectively.

Take `O=C1NC(c2cccc(Nc3ccc(F)c(F)c3)n2)(c2cccc(Oc3cccc4ncccc34)n2)CC(O)=C1Sc1ccccc1Cl` (stereo in doubt; 47): the figures for the IC50 in series [2] and in series [3] were 68 nM and 650 nM, respectively.

In series [2], `O=C1OC(c2ccccc2)(c2ccccn2)CC(O)=C1Sc1ccccc1Cl` (stereo in doubt; 2) displayed an IC50 of 920 nM.

Take `O=C1NC(c2cccc(NCCC3CC3)n2)(c2cccc(Nc3ccc(F)c(F)c3)n2)CC(O)=C1Sc1ccccc1Cl` (stereo in doubt; 40): the IC50 in series [2] was 13 nM.

With `O=C1OC(c2ccccc2)(c2ccccc2)CC(O)=C1Sc1ccccc1Cl`, the half-inhibitory concentration (IC50) amounted to 1000 nM in series [2] and 3100 nM in series [3].

For the molecule `O=C1N[C@@](c2cccc(Nc3ccc(F)cc3)n2)(c2cccc(Nc3ccc(F)c(F)c3)n2)CC(O)=C1Sc1ccccc1Cl`, in series [2], the IC50 is 3.7 nM.

For the molecule `O=C1OC(c2ccccc2)(c2cccs2)CC(O)=C1Sc1ccccc1Cl` (stereo in doubt; 8), the figures for the IC50 in series [2] and in series [3] were 220 nM and 1500 nM, respectively.

Take `O=C1OC(c2ccccc2)(c2ccsc2)CC(O)=C1Sc1ccccc1Cl` (stereo in doubt; 5): in series [2], the IC50 amounted to 90 nM.

As for `O=C1OC(c2ccccc2)(c2ccsc2)CC(O)=C1Sc1ccccc1Cl` (stereo in doubt; 6), in series [2], inhibition was half-maximal at 430 nM (IC50).

The molecule `Nc1cccc(C2(c3ccsc3)CC(O)=C(Sc3ccccc3Cl)C(=O)O2)c1` (stereo in doubt; 21) displayed an IC50 in series [2] of 190 nM.

Consider `O=C1OC(c2ccccc2)(c2ccccc2O)CC(O)=C1Sc1ccccc1Cl` (stereo in doubt; 14), for which the IC50 in series [2] stood at 26 nM; in series [3], 75 nM.

`O=C1NC(c2cccc(Nc3ccc(F)c(F)c3)n2)(c2cccc(Oc3ccccc3)n2)CC(O)=C1Sc1ccccc1Cl` (stereo in doubt; 44) gave a logD in series [1] of 2.6. Besides, the half-maximal inhibitory concentration (IC50) in series [4] was found to be 5300 nM; in series [2], 2.5 nM.

`O=C1OC(c2ccsc2)(c2cccc(Nc3ccc(F)cc3)n2)CC(O)=C1Sc1ccccc1Cl` (stereo in doubt; 31): in series [2], the midpoint of inhibition, the IC50, lay at 6.9 nM.

In series [1], `O=C1NC(c2ccsc2)(c2cccc(Nc3ccc(F)c(F)c3)n2)CC(O)=C1Sc1ccccc1Cl` (stereo in doubt; 38) had a pH-dependent lipophilicity (logD) of 1.1. Also, the IC50 worked out at 9100 nM in series [4] and 10 nM in series [2].

On to `O=C1OC(c2ccsc2)(c2ccccn2)CC(O)=C1Sc1ccccc1Cl` (stereo in doubt; 12), for which the IC50 in series [2] worked out at 970 nM; in series [3] it was 3200 nM.

As for `O=C1NC(c2cccc(Nc3ccc(F)c(F)c3)n2)(c2cccc(NC3CCOCC3)n2)CC(O)=C1Sc1ccccc1Cl` (stereo in doubt; 37), it took 55 nM to reach half-maximal inhibition in series [2] (IC50).

In turn, `O=C1NC(c2ccc(N3CCOCC3)cc2)(c2cccc(Oc3ccc(F)cc3)n2)CC(O)=C1Sc1ccccc1Cl` (stereo in doubt; 51) came in with a half-inhibitory concentration (IC50) in series [2] of 37 nM.

As for `O=C1OC(c2ccccc2)(c2ccccc2O)CC(O)=C1Sc1ccccc1Cl` (stereo in doubt; 15), the IC50 in series [2] worked out at 430 nM; in series [3], 950 nM.

As for `O=C1NC(c2cccc(Nc3ccc(F)c(F)c3)n2)(c2cccc(Oc3ccccc3)n2)CC(O)=C1Sc1ccccc1Cl` (stereo in doubt; 45), half-maximal inhibition in series [2] (IC50) was put at 3.2 nM.

Consider `O=C1OC(c2ccccc2)(c2ccccn2)CC(O)=C1Sc1ccccc1Cl` (stereo in doubt; 3), for which, in series [2], the IC50 turned out to be 2400 nM.

As for `O=C1OC(c2ccccn2)(c2ccccn2)CC(O)=C1Sc1ccccc1Cl`, the figures for the IC50 in series [2] and in series [3] were 1200 nM and 2900 nM, respectively.

`O=C1OC(c2cccs2)(c2cccs2)CC(O)=C1Sc1ccccc1Cl` came in with an IC50 in series [2] of 90 nM.

Turning to `O=C1OC(c2ccccc2)(c2cccs2)CC(O)=C1Sc1ccccc1Cl` (stereo in doubt; 7), the IC50 was found to be 120 nM in series [2] and 1300 nM in series [3].

As for `O=C1NC(c2ccc(N3CCOCC3)cc2)(c2cccc(Oc3ccc(F)cc3)n2)CC(O)=C1Sc1ccccc1Cl` (stereo in doubt; 50), the logD in series [1] was found to be 1.9. For the same molecule, in series [5], the Papp A→B at 100 µM came to 2.2 ×10⁻⁶ cm/s. For the same molecule, the IC50 in series [4] was found to be 1700 nM; in series [2], 1.8 nM. In series [6], the fraction unbound came to 0.001.

Consider `O=C1NC(c2cccc(Nc3ccc(F)c(F)c3)n2)(c2cccc(NC3CCOCC3)n2)CC(O)=C1Sc1ccccc1Cl` (stereo in doubt; 36), for which, in series [1], the logD turned out to be 2.4. For the same molecule, the half-maximal inhibitory concentration (IC50) in series [4] is 7200 nM; in series [2], 2.7 nM.

Take `O=C1OC(c2ccccc2)(c2cscn2)CC(O)=C1Sc1ccccc1Cl` (stereo in doubt; 10): the results for the IC50 in series [2] and in series [3] were 1100 nM and 2800 nM, respectively.

`O=C1OC(c2ccsc2)(c2ccccc2O)CC(O)=C1Sc1ccccc1Cl` (stereo in doubt; 16): 2.2 nM corresponded to half-maximal inhibition in series [2] (IC50).

Consider `O=C1O[C@@](c2ccsc2)(c2cccc(Nc3ccc(F)cc3)c2)CC(O)=C1Sc1ccccc1Cl`, for which half-maximal inhibition in series [2] (IC50) required 4 nM.

The molecule `O=C1OC(c2ccsc2)(c2cccc(NCC(F)(F)F)c2)CC(O)=C1Sc1ccccc1Cl` (racemic) showed an IC50 in series [2] of 66 nM.

The molecule `CC(=O)Nc1cccc(C2(c3ccsc3)CC(O)=C(Sc3ccccc3Cl)C(=O)O2)c1` (racemic) came in with an IC50 in series [2] of 43 nM.

`O=C1OC(c2ccsc2)(c2ccccc2O)CC(O)=C1Sc1ccccc1Cl` (stereo in doubt; 17) displayed an IC50 in series [2] of 22 nM.
